Two molecules from patent publication US20250248393A1, “METHOD OF RELEASING A SEMIOCHEMICAL IN THE ENVIRONEMENT BY PASSIVE DIFFUSION, SYSTEM AND MEANS, ESPECIALLY STICKS, TO THIS END, AND USES THEREOF” (SIGNS, priority 2024, published 2025) can be followed below.

What all share (type): physicochemical
The nature of series [1]: Direct diffusion of diffuser blocks (SPME GC/MS). The following applies: despecified pheromone 2%, 4 weeks. The procedure: Analyses were carried out using gas chromatography (GC) coupled to a mass spectrometer (MS) detector, a technique commonly referred to as GCMS. The molecules of interest were extracted using the Solid Phase Micro-Extraction (SPME) technique. The instrument used was the following: QP2010SE® from Shimadzu (See FIG. 4).
AOC 6000® automatic feeder • Extraction/SPME fiber: polyacrylate/Fused silica (85 μm), 23 Ga. • Adsorption time: 2 hours (exposure time of fiber above block) (See FIG. 4) • Desorption time: 30 minutes (fiber exposure time in injector) • Fiber-block distance: 2 cm • Injection: split/splitless injector • Temperature: 250° C., split 50 mode. • Separation: ZB-FFAP® column (Phénomenex), length: 30 m, diameter: 250 μm, film thickness: […]
• Carrier gas: Helium (He) • Analysis time: 18 min (not including time to return to equilibrium between each analysis injection • Detection: mass spectrometer with electron impact source/analyzer: quadrupole. • Source temperature: 200° C. • Interface temperature: 250° C. • Scan m/z 50 to m/z 500 • SIM with ions 55, 66 and 74.
Analyses were carried out in triplicate to verify reproducibility of results.
With the SPME method, results are evaluated by measuring the chromatographic peak area. The data have been plotted on diffusion curve (see FIGS. 5 and 6).

The nature of series [2]: Indirect assay of rod diffuser solution (GC/FID). The following applies: stick diffuser solution, despecified pheromone. The protocol:
Solution integrity was checked at each analysis time. Before each indirect assay, the vial was weighed to visualize mass loss over time. Each vial contained six sticks. • Specifications: the solution must lose mass over time. • Result: Compliant—See FIG. 9 This is the same analytical method as for the diffuser block study, only the sample preparation differs. 1.25 g of solution were weighed into a 25 mL volumetric flask and the volume made up to the mark with acetone. The resulting solution is transferred to a 1.5 mL GC vial for analysis. This is exactly the same calibration range as for the diffuser block study.

Series [3] is described as follows: Pheromone migrated to the stick tips (GC/FID). Conditions: on stick tips, despecified pheromone. The protocol: In the course of this study, we also measured the amount of pheromone migrating on the sticks, to check that the pheromone had migrated to the top of the sticks, helping it to diffuse into the air. To do this, the test is the same as for the diffuser blocks: 2.5 g of stick tips are cut off and placed in a 50 mL flask, which is then placed in an ultrasonic bath for one hour. The resulting solution is filtered (to avoid injecting particles into the instrument) and placed in a chromatographic vial for analysis.

The nature of series [4]: F3 direct diffusion and mass loss, 40 mL and eight sticks with a refill. Conditions: F3, eight sticks. The protocol: To that purpose, three devices containing 40 mL of F3 feline facial pheromone product and eight rattan sticks were prepared and left on diffusion. Every Monday, Wednesday and Friday, the diffusion of the pheromone in air was checked by analysis by gas chromatography coupled with mass spectrometer (GC/MS) and SPME (solid phase microextraction) until there was no liquid left. Then, the solution was refilled and a second study of the diffusion of the pheromone was performed.
Experimentally, the studied device was taken and placed into a closed space under identical conditions than in section E/, and for analyzing the same data.
Each measuring day, the devices were weighed and the level of the solution in the flask was controlled.

A short description of series [5]: DAP PCDS direct diffusion (SPME-GC/MS). The following applies: DAP/PCDS diffuser, 40 mL, 6 capillaries.
Series [6] in a line: Ratios of molecules diffused through the sticks over time. The procedure:
Furthermore, as small molecules diffuse more, it happens that they lose intensity over the course of the study, so the ratios are different 24 hours after immersing the sticks in the liquid and 21 days later. Here are the ratios for each pheromone studied at the start of the study and at the end.

[7] abbreviates: DAP, 24 h after immersion of sticks.
Setting [8] is: DAP, 21 days after immersion of sticks (empty tank).
[9] abbreviates: Despecified pheromone (Core), 5 days after immersion of the sticks.
Where [10] appears, read: Despecified pheromone (Core), 21 days after immersion of sticks (empty tank).
[11] abbreviates: F3, 24 h after immersion of sticks.
The mark [12] stands for this setting: F3, 21 days after immersion of sticks (empty tank).
The mark [13] stands for this setting: F3P, 24 h after immersion of the sticks.
The mark [14] stands for this setting: F3P, 21 days after immersion of sticks (empty tank).

SMILES strings stand for the structures.

`CCCCCCCC/C=C\CCCCCCCC(=O)OC` [methyl oleate, methyl (Z)-octadec-9-enoate]: in series [1], the “direct diffusion from the diffuser block” value was “lowest intensity”. Further, the “% of the active ingredient in the pheromone” value (“% of the active ingredient” for short) in series [2] (day 0) worked out at 30.8%; in series [2] (day 7), 30.8%; in series [2] (day 14), 30.7%; in series [2] (day 21), 30.8%; in series [3] (day 7), 31.3%; in series [3] (day 14), 31.5%. For the same molecule, in series [3] (day 21), the “% of the active ingredient” value amounted to 32.6%. Moreover, the “intensity of direct diffusion” value in series [4] is recorded as “less intensity”. In series [5], the “direct diffusion over time” value was “slight increase over time”. For the same molecule, the “ratio of molecules diffused through the sticks” value (shortened to “ratio”) in series [6] (setting [7]) is 2 % (w/w); in series [6] (setting [8]), 3.5 % (w/w); in series [6] (setting [9]), 3 % (w/w); in series [6] (setting [10]), 4 % (w/w); in series [6] (setting [11]), 2 % (w/w); in series [6] (setting [12]), 4 % (w/w). Besides, the “ratio” value in series [6] (setting [13]) was 0.6 % (w/w); in series [6] (setting [14]), 2 % (w/w).

Consider `CCCCCCCCCCCCCCCC(=O)OC` [methyl palmitate, methyl hexadecanoate], for which the “direct diffusion from the diffuser block” value in series [1] is given as “diffuse better”. In addition, the “% of the active ingredient” value stood at 27.3% in series [2] (day 0); 27.3% in series [2] (day 7); 27.2% in series [2] (day 14); 26.2% in series [2] (day 21); 29.8% in series [3] (day 7); 30.2% in series [3] (day 14). The “% of the active ingredient” value in series [3] (day 21) is on record as 32.5%. Moreover, in series [4], the “intensity of direct diffusion” value is “less intensity”. Further, the “direct diffusion over time” value in series [5] is reported as “slight increase over time”. In addition, the “ratio” value in series [6] (setting [7]) was 9.5 % (w/w); in series [6] (setting [8]), 12 % (w/w); in series [6] (setting [9]), 19 % (w/w); in series [6] (setting [10]), 22 % (w/w); in series [6] (setting [11]), 3 % (w/w); in series [6] (setting [12]), 5 % (w/w). Further, the “ratio” value in series [6] (setting [13]) is 1 % (w/w); in series [6] (setting [14]) it was 3.4 % (w/w).
